The values below come from patent US20040044037A1, “Amidino-urea serotonin receptor ligands and compositions, their pharmaceutical uses, and methods for their snythesis” (priority 2003, published 2004).

Some results are limits rather than exact numbers.

One experiment has as its target T1, human 5-HT1a receptors (Homo sapiens, UniProt P08908).
T1 construct: expressed in transfected cells; host or cells: CHO K1 cells
T1 sequence (P08908 1-422): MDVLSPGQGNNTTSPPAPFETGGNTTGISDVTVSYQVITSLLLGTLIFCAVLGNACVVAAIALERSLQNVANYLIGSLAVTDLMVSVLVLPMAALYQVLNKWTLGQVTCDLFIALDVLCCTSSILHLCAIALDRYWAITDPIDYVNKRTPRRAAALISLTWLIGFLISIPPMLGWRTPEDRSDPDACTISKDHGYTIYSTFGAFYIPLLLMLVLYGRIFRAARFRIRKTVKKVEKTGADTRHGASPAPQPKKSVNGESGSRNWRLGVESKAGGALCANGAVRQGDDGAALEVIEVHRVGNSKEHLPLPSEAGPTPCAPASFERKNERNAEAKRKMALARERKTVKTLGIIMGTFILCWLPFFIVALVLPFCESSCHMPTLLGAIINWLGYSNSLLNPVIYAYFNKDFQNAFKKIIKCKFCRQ
Put plainly: Competition radioligand binding, h5-HT1a. The note with it: [3H]5-CT; membranes of CHO K1 cells; read-out: Ki 5-HT1A. Here is the method:
Cells and Membrane Preparation: HEK 293 cells stably expressing human 5-HT7B (h5-HT7b) receptors were grown in Dulbecco's Modified Eagle's Medium (DMEM; Gibco) without sodium pyruvate and containing 4.5 g/L glucose, L-glutamine/penicillin-streptomycin (Gemini), 10% fetal bovine serum and 250 mg/l of the antibiotic, G418 (Geneticin) as previously described (Jasper, J. R., Kosaka, A., To, Z. P., Chang, D. J. and Eglen, R. M. (1997) Cloning, expression and pharmacology of a truncated splice variant of the human 5-ht7 receptor (h5-ht7b). Br. J. Pharmacol. 122(1):126-132.). Cell pellets were homogenized in approximately 50 mL of homogenization buffer (buffer A) containing: 50 mM Tris (pH 7.4), 2 mM EGTA, 0.32 M sucrose, 10 μM PMSF, 1 μg/mL leupeptin, 5 μg/mL Pepstatin A, and 5 μg/mL aprotinin using an UltraTurax homogenizer (Tekmar Company, Cincinnati, Ohio) at 80% maximum setting three times for 10 sec. Cell pellets were centrifuged at 4° C. at 1,500×g for 10 min in a Beckman GS-6R centrifuge. Pellets were resuspended in buffer A, homogenized and centrifuged as described above. Pooled supernatants were transferred to centrifuge bottles and centrifuged at 4° C. at 20,000×g for 30 min in a Beckman J2-HS centrifuge. Cell pellets were resuspended in buffer A and were centrifuged at 4° C. at 20,000×g for 30 min. Cell pellets were resuspended in buffer A and stored at −70° C. in aliquots of 2.5 mg/mL total membrane protein. Total membrane protein was assessed utilizing a BCA kit (Pierce; Rockford, Ill.). Membranes containing human 5-HT1a or 5HT2a receptors expressed in CHO K1 cells were prepared as described above.
Radioligand Binding Assays: For 5-HT7 saturation binding experiments, HEK-293 cell membranes expressing h5-HT7 receptors (5-10 μg membrane protein/well) were incubated in duplicate with [^3H]5-CT (approximately 0.2 nM) in binding assay buffer containing: 50 mM HEPES (pH 7.4), 0.5 mM EDTA, 10 mM MgCl2, 10 μM pargyline to inhibit monoamine oxidase activity, and 0.1% sodium ascorbate, in a final volume of 200 μL in 96-well polypropylene plates for 2 hours at 37° C. Nonspecific binding was determined by incubating membranes with 1 μM 5-HT. All radioligand binding assays were stopped by rapid filtration onto 96-well GF/C filter plates (Packard) soaked in 0.1% polyethylenimine. Filters were washed three times with ice-cold phosphate-buffered saline (PBS) wash buffer containing 50 mM NaPO4 (pH 7.4), 0.9% NaCl, 2 mM MgCl2 and 0.02% NaN3. The filters were then counted using liquid scintillation in a Packard Topcount scintillation counter.
Data Analysis: Radioligand binding experiments were analyzed with Prism™ (Graphpad, San Diego, Calif.), a computer graphics and statistics program. IC50 values and Hill slopes for compounds were generated by nonlinear regression using Prism™. Values for Ki calculated from IC50 values by the Cheng and Prussoff equation (Cheng, Y. and Prusoff, W. H., (1973), “Relationship between the inhibition constant (Ki) and the concentration of inhibitor which causes 50 per cent inhibition (I50) of an enzymatic reaction.” Biochemical Pharmacol. 22:3099-3108).

The target in experiment [1] is T2, human 5-HT7B (h5-HT7b) receptors (Homo sapiens, UniProt P34969).
T2 construct: expressed in transfected cells
The experiment is described as follows: Competition radioligand binding, h5-HT7b. Particulars: [3H]5-CT; membranes of HEK 293 cells; read-out: Ki 5-HT7. The gist of the method: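 Membranes from HEK 293 cells stably expressing human 5-HT7b incubated with ~0.2 nM [3H]5-CT and varying compound 2 h at 37 °C in HEPES buffer pH 7.4 with pargyline. Nonspecific binding with 1 μM 5-HT; filtration, scintillation counting; IC50 by nonlinear regression converted to Ki via Cheng–Prusoff.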

Experiment [2] deals with T3, human D2S dopamine (hD2S-DA) receptors (Homo sapiens, UniProt P14416).
T3 construct: purchased Receptor Biology, Inc. (Beltsville, Md.); host or cells: A9 L cells
Put plainly: Competition radioligand binding, hD2S dopamine. The note with it: [3H]Spiperone; membranes of A9 L cells; read-out: Ki D2.

Experiment [3] addresses T4, human 5-HT6 (h5-HT6) receptors (Homo sapiens, UniProt P50406).
T4 construct: purchased Receptor Biology, Inc. (Beltsville, Md.); host or cells: HEK-293 cells
The experiment is described as follows: Competition radioligand binding, h5-HT6. The note with it: [3H]LSD; membranes of HEK-293 cells; read-out: Ki 5-HT6.

In the next experiment the target is T5, human 5HT2a receptors (Homo sapiens, UniProt P28223).
T5 construct: expressed in transfected cells; host or cells: CHO K1 cells
Put plainly: Competition radioligand binding, 5-HT2A. The note with it: [3H]Ketanserin; membranes of CHO K1 cells; read-out: Ki 5-HT2A. The method in brief:
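Human 5-HT1a and 5-HT2a receptors were expressed in CHO K1 cell membranes. Competition binding was stopped by filtration onto PEI-soaked GF/C filters and counted by liquid scintillation. IC50 values and Hill slopes came from nonlinear regression, and Ki was calculated by Cheng–Prusoff.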

T2 sequence (P34969 1-432 limits assumed): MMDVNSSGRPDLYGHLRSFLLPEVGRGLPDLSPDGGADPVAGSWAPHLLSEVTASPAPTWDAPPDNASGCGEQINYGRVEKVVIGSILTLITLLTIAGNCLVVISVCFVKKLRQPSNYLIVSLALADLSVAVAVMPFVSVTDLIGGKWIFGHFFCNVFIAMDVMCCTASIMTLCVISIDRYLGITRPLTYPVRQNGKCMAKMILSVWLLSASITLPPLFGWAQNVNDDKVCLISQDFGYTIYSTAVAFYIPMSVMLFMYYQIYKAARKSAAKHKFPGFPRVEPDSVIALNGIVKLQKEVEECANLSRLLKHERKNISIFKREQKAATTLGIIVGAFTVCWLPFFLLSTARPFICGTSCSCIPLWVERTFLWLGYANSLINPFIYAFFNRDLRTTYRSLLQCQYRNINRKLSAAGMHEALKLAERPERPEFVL
T3 sequence (P14416 1-414 isoform P14416-2): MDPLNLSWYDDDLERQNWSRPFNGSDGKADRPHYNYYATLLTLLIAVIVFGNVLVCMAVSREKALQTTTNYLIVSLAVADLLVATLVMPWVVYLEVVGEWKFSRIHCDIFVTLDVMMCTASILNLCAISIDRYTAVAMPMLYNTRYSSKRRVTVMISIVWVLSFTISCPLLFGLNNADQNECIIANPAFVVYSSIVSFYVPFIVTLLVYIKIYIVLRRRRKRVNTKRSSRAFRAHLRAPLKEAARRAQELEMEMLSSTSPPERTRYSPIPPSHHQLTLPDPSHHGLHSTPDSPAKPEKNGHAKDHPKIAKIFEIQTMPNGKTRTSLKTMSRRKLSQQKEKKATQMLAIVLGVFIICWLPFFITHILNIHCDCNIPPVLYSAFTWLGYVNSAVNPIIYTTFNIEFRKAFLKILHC
T5 sequence (P28223 whole entry): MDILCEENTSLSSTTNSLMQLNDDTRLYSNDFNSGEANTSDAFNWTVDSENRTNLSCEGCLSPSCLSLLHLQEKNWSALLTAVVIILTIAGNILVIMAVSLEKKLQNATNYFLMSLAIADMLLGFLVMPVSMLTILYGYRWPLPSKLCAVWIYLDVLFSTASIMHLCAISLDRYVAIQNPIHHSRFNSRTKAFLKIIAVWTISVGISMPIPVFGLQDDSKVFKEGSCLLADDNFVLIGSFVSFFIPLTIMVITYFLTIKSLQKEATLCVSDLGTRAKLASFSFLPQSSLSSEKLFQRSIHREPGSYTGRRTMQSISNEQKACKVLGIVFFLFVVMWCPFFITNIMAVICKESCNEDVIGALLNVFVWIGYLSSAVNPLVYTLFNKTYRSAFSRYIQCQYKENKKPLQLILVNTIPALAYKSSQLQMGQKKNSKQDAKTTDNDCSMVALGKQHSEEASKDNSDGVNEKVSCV
T4 sequence (P50406 whole entry): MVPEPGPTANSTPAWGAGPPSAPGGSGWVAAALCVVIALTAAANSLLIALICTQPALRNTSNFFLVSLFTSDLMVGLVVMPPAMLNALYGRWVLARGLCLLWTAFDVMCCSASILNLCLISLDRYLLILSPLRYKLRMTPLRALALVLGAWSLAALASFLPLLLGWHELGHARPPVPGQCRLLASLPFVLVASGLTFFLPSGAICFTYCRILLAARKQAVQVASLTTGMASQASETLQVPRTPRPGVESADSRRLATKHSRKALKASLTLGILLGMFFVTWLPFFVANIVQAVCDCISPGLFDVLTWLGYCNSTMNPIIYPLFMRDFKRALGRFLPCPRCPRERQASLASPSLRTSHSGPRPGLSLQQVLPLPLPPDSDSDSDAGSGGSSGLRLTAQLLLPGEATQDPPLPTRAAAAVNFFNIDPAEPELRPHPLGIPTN

On to `CN(C)C(=O)NC(=N)NCc1cccc2ccccc12` [Example 56, 1-({[{[(Dimethylamino)carbonyl]amino}(imino)methyl]amino}methyl)naphthalene], for which the Ki (commonly a dissociation constant, usually derived from enzyme kinetics or from competition with a known ligand) was 700 nM on human 5-HT1a receptors; 94 nM in experiment [1]; more than 2500 nM in experiment [2]; more than 10000 nM in experiment [3]; 17 nM on human 5HT2a receptors.

For the compound `COc1cccc(CN2CCC(CNC(=O)NC(=N)NCc3cccc4ccccc34)CC2)c1` [Example 58, 4-({[({Imino[(1-naphthylmethyl)amino]methyl}amino)carbonyl]amino}methyl)-1-(3-methoxybenzyl)piperidine], the Ki came to 420 nM at human 5-HT1a receptors; 23 nM in experiment [1]; 1570 nM in experiment [2]; 1370 nM in experiment [3]; 8.1 nM on human 5HT2a receptors.

Take `N=C(NCc1cccc2ccccc12)NC(=O)NCC1CCN(Cc2ccc([N+](=O)[O-])cc2)CC1` [Example 60, 4-({[({Imino[(1-naphthylmethyl)amino]methyl}amino)carbonyl]amino}methyl)-1-(4-nitrobenzyl)piperidine]: the Ki came to 68 nM at human 5-HT1a receptors; 51 nM in experiment [1]; 1870 nM in experiment [2]; 3470 nM in experiment [3]; 16 nM on human 5HT2a receptors.

Turning to `COc1ccc(C(C)=O)cc1CN1CCC(CNC(=O)NC(=N)NCc2cccc3ccccc23)CC1` [Example 63, 1-(5-Acetyl-2-methoxybenzyl)4({[({imino[(1-naphthylmethyl)amino]methyl}amino)carbonyl]amino}methyl)piperidine], the Ki at human 5-HT1a receptors was 340 nM; in experiment [1], 39 nM; in experiment [2], 1780 nM; in experiment [3], 3030 nM; on human 5HT2a receptors it was 1.8 nM.

As to `Cc1ccccc1CN1CCC(CNC(=O)NC(=N)NCc2cccc3ccccc23)CC1` [Example 65, 4-({[({Imino[(1-naphthylmethyl)amino]methyl}amino)carbonyl]amino}methyl)-1-(2-methylbenzyl)piperidine], the Ki on human 5-HT1a receptors stood at 690 nM; in experiment [1], 29 nM; in experiment [2], 2490 nM; in experiment [3], 4180 nM; at human 5HT2a receptors it was 9.5 nM.

Turning to `N=C(NCc1cccc2ccccc12)NC(=O)NCC1CCN(Cc2ccc3c(c2)OCO3)CC1` [Example 66, 1-(1,3-Benzodioxol-5-ylmethyl)-4-({[({imino[(1-naphthylmethyl)amino]methyl}amino)carbonyl]amino}methyl)piperidine], the Ki at human 5-HT1a receptors turned out to be 430 nM; in experiment [1] it was 31 nM; in experiment [2], 1580 nM; in experiment [3] it was 3700 nM; on human 5HT2a receptors it was 4.2 nM.

In the case of `N=C(NCc1cccc2ccccc12)NC(=O)NCC1CCN(Cc2ccc(F)cc2F)CC1` [Example 67], the inhibition constant (Ki) on human 5-HT1a receptors is 500 nM; in experiment [1], 32 nM; in experiment [2], more than 2500 nM; in experiment [3], 2860 nM; at human 5HT2a receptors, 6.4 nM.

For the compound `COc1ccc(CN2CCC(CNC(=O)NC(=N)NCc3cccc4ccccc34)CC2)cc1C` [Example 68, 4-({[({Imino[(1-naphthylmethyl)amino]methyl}amino)carbonyl]amino}methyl)-1-(4-methoxy-3-methylbenzyl)piperidine], the Ki on human 5-HT1a receptors was 1680 nM; in experiment [1] it was 18 nM; in experiment [2], 1540 nM; in experiment [3], 910 nM; at human 5HT2a receptors, 10 nM.

With `CC(=O)Nc1ccc(CN2CCC(CNC(=O)NC(=N)NCc3cccc4ccccc34)CC2)cc1` [Example 70, N-(4-{[4-({[({Imino[(1-naphthylmethyl)amino]methyl}amino)carbonyl]amino}methyl)-1-piperidinyl]methyl}phenyl)acetamide], the inhibitory constant (Ki) on human 5-HT1a receptors came out at 110 nM; in experiment [1], 16 nM; in experiment [2] it was 2450 nM; in experiment [3] it was 2430 nM; at human 5HT2a receptors, 0.55 nM.

Turning to `COc1ccc(CN2CCC(CNC(=O)NC(=N)NCc3cccc4ccccc34)CC2)cc1` [Example 71, 4-({[({Imino[(1-naphthylmethyl)amino]methyl}amino)carbonyl]amino}methyl)-1-(4-methoxybenzyl)piperidine], the Ki on human 5-HT1a receptors was found to be 600 nM; in experiment [1] it was 19 nM; in experiment [2], 1470 nM; in experiment [3], 1370 nM; at human 5HT2a receptors, 1.3 nM.

Regarding `Cc1cccc(CN2CCC(CNC(=O)NC(=N)NCc3cccc4ccccc34)CC2)c1` [Example 72, 4-({[({Imino[(1-naphthylmethyl)amino]methyl}amino)carbonyl]amino}methyl)-1-(3-methylbenzyl)piperidine], the Ki on human 5-HT1a receptors amounted to 420 nM; in experiment [1], 15 nM; in experiment [2], 880 nM; in experiment [3], 880 nM; on human 5HT2a receptors, 5.3 nM.

Take `N=C(NCc1cccc2ccccc12)NC(=O)NCC1CCN(Cc2cccc(Cl)c2)CC1` [Example 73, 1-(3-Chlorobenzyl)-4-({[({imino[(1-naphthylmethyl)amino]methyl}amino)carbonyl]amino}methyl)piperidine]: the inhibitory constant (Ki) was 390 nM at human 5-HT1a receptors; 21 nM in experiment [1]; 830 nM in experiment [2]; 750 nM in experiment [3]; 8.7 nM at human 5HT2a receptors.

On to `N=C(NCc1cccc2ccccc12)NC(=O)NCC1CCN(Cc2cc(F)cc(F)c2)CC1` [Example 74, 1-(3,5-Difluorobenzyl)-4-({[({imino[(1-naphthylmethyl)amino]methyl}amino)carbonyl]amino}methyl)piperidine], for which the inhibition constant (Ki) was found to be 300 nM at human 5-HT1a receptors; 28 nM in experiment [1]; 1340 nM in experiment [2]; 1910 nM in experiment [3]; 4.1 nM on human 5HT2a receptors.

Consider `N=C(NCc1cccc2ccccc12)NC(=O)NCC1CCN(Cc2ccccc2)CC1` [Example 75, 1-Benzyl-4-({[({imino[(1-naphthylmethyl)amino]methyl}amino)carbonyl]amino}methyl)piperidine], for which the Ki on human 5-HT1a receptors is 340 nM; in experiment [1], 29 nM; in experiment [2], 2300 nM; in experiment [3], 4010 nM; on human 5HT2a receptors, 4.9 nM.
